Test results reported in PubChem BioAssay (NCI).
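How tested: cells in 96-well plates exposed to compound for 48 hours at five concentrations. TGI marks complete inhibition of growth.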

Legend:
Assay in all cases: growth of human tumour cells (NCI), 48 h
MDA-N = test system: MDA-N
SF-295 CNS = test system: SF-295 CNS
TK-10 renal = test system: TK-10 renal
SNB-19 CNS = test system: SNB-19 CNS
RPMI-8226 leukemia = test system: RPMI-8226 leukemia
CCRF-CEM leukemia = test system: CCRF-CEM leukemia
HCT-116 colon = test system: HCT-116 colon
MDA-MB-435 = test system: MDA-MB-435
EKVX NSCLC = test system: EKVX NSCLC
BT-549 breast = test system: BT-549 breast
M14 melanoma = test system: M14 melanoma
HCC-2998 colon = test system: HCC-2998 colon
NCI/ADR-RES ovarian = test system: NCI/ADR-RES ovarian
HOP-92 NSCLC = test system: HOP-92 NSCLC
PC-3 prostate = test system: PC-3 prostate
HCT-15 colon = test system: HCT-15 colon
OVCAR-4 ovarian = test system: OVCAR-4 ovarian
SK-MEL-5 melanoma = test system: SK-MEL-5 melanoma
OVCAR-5 ovarian = test system: OVCAR-5 ovarian
KM12 colon = test system: KM12 colon
COLO 205 colon = test system: COLO 205 colon
HL-60(TB) leukemia = test system: HL-60(TB) leukemia
CAKI-1 renal = test system: CAKI-1 renal
786-0 renal = test system: 786-0 renal
SN12C renal = test system: SN12C renal
HOP-62 NSCLC = test system: HOP-62 NSCLC
NCI-H522 lung = test system: NCI-H522 lung
T-47D breast = test system: T-47D breast
IGROV1 ovarian = test system: IGROV1 ovarian
SW-620 colon = test system: SW-620 colon
NCI-H460 lung = test system: NCI-H460 lung
RXF 393 renal = test system: RXF 393 renal
HS 578T breast = test system: HS 578T breast
MALME-3M melanoma = test system: MALME-3M melanoma
MOLT-4 leukemia = test system: MOLT-4 leukemia
MCF7 breast = test system: MCF7 breast
A549 NSCLC = test system: A549 NSCLC
ACHN renal = test system: ACHN renal
LOX IMVI melanoma = test system: LOX IMVI melanoma
SK-MEL-28 melanoma = test system: SK-MEL-28 melanoma
UO-31 renal = test system: UO-31 renal
OVCAR-3 ovarian = test system: OVCAR-3 ovarian
HT29 colon = test system: HT29 colon
NCI-H226 lung = test system: NCI-H226 lung
SR leukemia = test system: SR leukemia
A498 renal = test system: A498 renal
UACC-62 melanoma = test system: UACC-62 melanoma
DU-145 prostate = test system: DU-145 prostate
SNB-75 CNS = test system: SNB-75 CNS
SK-OV-3 ovarian = test system: SK-OV-3 ovarian
MDA-MB-231 breast = test system: MDA-MB-231 breast
NCI-H23 lung = test system: NCI-H23 lung
SF-539 CNS = test system: SF-539 CNS
U251 CNS = test system: U251 CNS
SK-MEL-2 melanoma = test system: SK-MEL-2 melanoma
SF-268 CNS = test system: SF-268 CNS
OVCAR-8 ovarian = test system: OVCAR-8 ovarian
UACC-257 melanoma = test system: UACC-257 melanoma
K-562 leukemia = test system: K-562 leukemia

For `CSc1nc(SC)c2c(C)c(Br)[nH]c2n1`, the TGI (MDA-N) was > 100 µM, the TGI (SF-295 CNS) was > 100 µM and the TGI (TK-10 renal) was > 100 µM. For the same molecule, the TGI (SNB-19 CNS) was > 100 µM, the TGI (RPMI-8226 leukemia) was > 100 µM and the TGI (CCRF-CEM leukemia) was > 100 µM. For the same molecule, the TGI (HCT-116 colon) was > 100 µM, the TGI (MDA-MB-435) was > 100 µM and the TGI (EKVX NSCLC) was > 100 µM. For the same molecule, the TGI (BT-549 breast) was > 100 µM, the TGI (M14 melanoma) was > 100 µM and the TGI (HCC-2998 colon) was > 100 µM. The TGI (NCI/ADR-RES ovarian) was > 100 µM, the TGI (HOP-92 NSCLC) was > 100 µM and the TGI (PC-3 prostate) was > 100 µM. For the same molecule, the TGI (HCT-15 colon) was > 100 µM, the TGI (OVCAR-4 ovarian) was > 100 µM and the TGI (SK-MEL-5 melanoma) was > 100 µM. For the same molecule, the TGI (OVCAR-5 ovarian) was > 100 µM, the TGI (KM12 colon) was > 100 µM and the TGI (COLO 205 colon) was > 100 µM. The TGI (HL-60(TB) leukemia) was > 100 µM, the TGI (CAKI-1 renal) was > 100 µM and the TGI (786-0 renal) was > 100 µM. The TGI (SN12C renal) was > 100 µM, the TGI (HOP-62 NSCLC) was > 100 µM and the TGI (NCI-H522 lung) was > 100 µM. The TGI (T-47D breast) was > 100 µM, the TGI (IGROV1 ovarian) was > 100 µM and the TGI (SW-620 colon) was > 100 µM. For the same molecule, the TGI (NCI-H460 lung) was > 100 µM, the TGI (RXF 393 renal) was > 100 µM and the TGI (HS 578T breast) was > 100 µM. For the same molecule, the TGI (MALME-3M melanoma) was > 100 µM, the TGI (MOLT-4 leukemia) was > 100 µM and the TGI (MCF7 breast) was > 100 µM. For the same molecule, the TGI (A549 NSCLC) was > 100 µM, the TGI (ACHN renal) was > 100 µM and the TGI (LOX IMVI melanoma) was > 100 µM. The TGI (SK-MEL-28 melanoma) was > 100 µM, the TGI (UO-31 renal) was > 100 µM and the TGI (OVCAR-3 ovarian) was > 100 µM. The TGI (HT29 colon) was > 100 µM, the TGI (NCI-H226 lung) was > 100 µM and the TGI (SR leukemia) was > 100 µM. For the same molecule, the TGI (A498 renal) was > 100 µM, the TGI (UACC-62 melanoma) was > 100 µM and the TGI (DU-145 prostate) was > 100 µM. For the same molecule, the TGI (SNB-75 CNS) was > 100 µM, the TGI (SK-OV-3 ovarian) was > 100 µM and the TGI (MDA-MB-231 breast) was > 100 µM. For the same molecule, the TGI (NCI-H23 lung) was > 100 µM, the TGI (SF-539 CNS) was > 100 µM and the TGI (U251 CNS) was > 100 µM. For the same molecule, the TGI (SK-MEL-2 melanoma) was > 100 µM, the TGI (SF-268 CNS) was > 100 µM and the TGI (OVCAR-8 ovarian) was > 100 µM.
Molecule `COc1ccc2nc3c([N+](=O)[O-])ccc4c3c(c2c1)N=CN4CCN(C)C` has a TGI (MDA-N) of 16.9 µM, a TGI (SF-295 CNS) of 21.7 µM and a TGI (TK-10 renal) of 21.1 µM. The TGI (SNB-19 CNS) was 28 µM, the TGI (RPMI-8226 leukemia) was 8.27 µM and the TGI (CCRF-CEM leukemia) was 9.76 µM. The TGI (HCT-116 colon) was 13.6 µM, the TGI (MDA-MB-435) was 25.9 µM and the TGI (EKVX NSCLC) was 18 µM. The TGI (BT-549 breast) was 28.6 µM, the TGI (M14 melanoma) was 18.7 µM and the TGI (HCC-2998 colon) was 20.3 µM. The TGI (NCI/ADR-RES ovarian) was 22 µM, the TGI (HOP-92 NSCLC) was 26.1 µM and the TGI (PC-3 prostate) was 35.4 µM. The TGI (HCT-15 colon) was 16.6 µM, the TGI (OVCAR-4 ovarian) was 34.9 µM and the TGI (SK-MEL-5 melanoma) was 7.81 µM. For the same molecule, the TGI (OVCAR-5 ovarian) was 23.3 µM, the TGI (KM12 colon) was 15.6 µM and the TGI (COLO 205 colon) was 10.1 µM. For the same molecule, the TGI (HL-60(TB) leukemia) was 0.616 µM, the TGI (CAKI-1 renal) was 5.71 µM and the TGI (786-0 renal) was 21.5 µM. It also gave a TGI (SN12C renal) of 12.5 µM, a TGI (HOP-62 NSCLC) of 15.3 µM and a TGI (UACC-257 melanoma) of 16.1 µM. For the same molecule, the TGI (NCI-H522 lung) was 9.68 µM, the TGI (T-47D breast) was 22.4 µM and the TGI (K-562 leukemia) was 2.94 µM. The TGI (IGROV1 ovarian) was 13.2 µM, the TGI (SW-620 colon) was > 42.6 µM and the TGI (NCI-H460 lung) was > 34.1 µM. For the same molecule, the TGI (HS 578T breast) was 28.1 µM, the TGI (MALME-3M melanoma) was 14.5 µM and the TGI (MOLT-4 leukemia) was 6.73 µM. For the same molecule, the TGI (MCF7 breast) was 14.2 µM, the TGI (A549 NSCLC) was 19.2 µM and the TGI (ACHN renal) was 16.6 µM. The TGI (LOX IMVI melanoma) was 14.6 µM, the TGI (SK-MEL-28 melanoma) was 39.5 µM and the TGI (UO-31 renal) was 11.6 µM. The TGI (OVCAR-3 ovarian) was 17 µM, the TGI (HT29 colon) was 14.4 µM and the TGI (NCI-H226 lung) was 20.3 µM. For the same molecule, the TGI (SR leukemia) was 0.855 µM, the TGI (A498 renal) was 15.4 µM and the TGI (UACC-62 melanoma) was 27.4 µM. The TGI (DU-145 prostate) was 15.8 µM, the TGI (SNB-75 CNS) was 12.1 µM and the TGI (SK-OV-3 ovarian) was 28.9 µM. For the same molecule, the TGI (MDA-MB-231 breast) was 10.7 µM, the TGI (NCI-H23 lung) was 21.1 µM and the TGI (SF-539 CNS) was 15.8 µM. The TGI (U251 CNS) was 24.5 µM, the TGI (SK-MEL-2 melanoma) was 31.6 µM and the TGI (SF-268 CNS) was 19.6 µM. It also gave a TGI (OVCAR-8 ovarian) of 19.3 µM.
With `COC(=O)CCc1cc(OC)c2oc(-c3ccc(OC)c(OC)c3)c(CO)c2c1` the TGI (MDA-N) was > 100 µM, the TGI (SF-295 CNS) was > 100 µM and the TGI (TK-10 renal) was > 100 µM. The TGI (SNB-19 CNS) was > 100 µM, the TGI (RPMI-8226 leukemia) was > 100 µM and the TGI (CCRF-CEM leukemia) was > 100 µM. For the same molecule, the TGI (HCT-116 colon) was > 100 µM, the TGI (MDA-MB-435) was > 100 µM and the TGI (EKVX NSCLC) was > 100 µM. The TGI (BT-549 breast) was > 100 µM, the TGI (M14 melanoma) was > 100 µM and the TGI (HCC-2998 colon) was > 100 µM. For the same molecule, the TGI (NCI/ADR-RES ovarian) was > 100 µM, the TGI (HOP-92 NSCLC) was > 100 µM and the TGI (PC-3 prostate) was > 100 µM. The TGI (HCT-15 colon) was > 100 µM, the TGI (OVCAR-4 ovarian) was > 100 µM and the TGI (SK-MEL-5 melanoma) was > 100 µM. For the same molecule, the TGI (OVCAR-5 ovarian) was > 100 µM, the TGI (KM12 colon) was > 100 µM and the TGI (COLO 205 colon) was > 100 µM. For the same molecule, the TGI (HL-60(TB) leukemia) was > 100 µM, the TGI (CAKI-1 renal) was > 100 µM and the TGI (786-0 renal) was > 100 µM. The TGI (SN12C renal) was > 100 µM, the TGI (HOP-62 NSCLC) was > 100 µM and the TGI (UACC-257 melanoma) was > 100 µM. For the same molecule, the TGI (NCI-H522 lung) was > 100 µM, the TGI (T-47D breast) was > 100 µM and the TGI (K-562 leukemia) was > 100 µM. For the same molecule, the TGI (IGROV1 ovarian) was > 100 µM, the TGI (SW-620 colon) was > 100 µM and the TGI (NCI-H460 lung) was > 100 µM. For the same molecule, the TGI (HS 578T breast) was > 100 µM, the TGI (MALME-3M melanoma) was > 100 µM and the TGI (MOLT-4 leukemia) was > 100 µM. The TGI (MCF7 breast) was > 100 µM, the TGI (A549 NSCLC) was > 100 µM and the TGI (ACHN renal) was > 100 µM. The TGI (LOX IMVI melanoma) was > 100 µM, the TGI (SK-MEL-28 melanoma) was > 100 µM and the TGI (UO-31 renal) was > 100 µM. The TGI (OVCAR-3 ovarian) was > 100 µM, the TGI (HT29 colon) was > 100 µM and the TGI (NCI-H226 lung) was > 100 µM. The TGI (SR leukemia) was > 100 µM, the TGI (A498 renal) was > 100 µM and the TGI (UACC-62 melanoma) was > 100 µM. The TGI (DU-145 prostate) was > 100 µM, the TGI (SK-OV-3 ovarian) was > 100 µM and the TGI (MDA-MB-231 breast) was > 100 µM. For the same molecule, the TGI (NCI-H23 lung) was > 100 µM, the TGI (SF-539 CNS) was > 100 µM and the TGI (U251 CNS) was > 100 µM. The TGI (SK-MEL-2 melanoma) was > 100 µM, the TGI (SF-268 CNS) was > 100 µM and the TGI (OVCAR-8 ovarian) was > 100 µM.
